Laboratory results published in ChEMBL document CHEMBL1201862, “PubChem BioAssay data set” (2004).
The source made the active and inactive calls. Rule as the data show it, for most assays here: actives have a measured EC50 and inactives only a lower limit.

Assays:
Cytochrome P450 2C9 = Cytochrome P450 2C9 (Homo sapiens, UniProt P11712)
[1] = NIH3T3 cell viability loss – ATP luminescence, mouse fibroblasts, counter-screen, dose response (AID 2010); type: functional, cell-based;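 also: cells exposed to compound for about 90 hours before reading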
[2] = Trypanosoma cruzi growth suppression in host cells – NIH3T3 host cells, beta-gal luminescence, confirmation (AID 2044); type: functional, cell-based;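 also: intracellular parasites grown in NIH/3T3 mouse fibroblasts as host cells; luminescent beta-galactosidase reporter signal from transgenic T. cruzi replicating inside host cells; inhibitors lower the luminescence signal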
Streptokinase A = target: T1, Streptokinase A (Streptococcus pyogenes serotype M1, UniProt P10520); test: viability-normalized secreted streptokinase activity reduction – plasminogen activation absorbance, OD405, dose response (AID 1914); type: functional, Streptococcus pyogenes M1 GAS;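 also: secreted streptokinase activity via plasminogen activation per viability signal from cell pellet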
T1 sequence (P10520 whole entry): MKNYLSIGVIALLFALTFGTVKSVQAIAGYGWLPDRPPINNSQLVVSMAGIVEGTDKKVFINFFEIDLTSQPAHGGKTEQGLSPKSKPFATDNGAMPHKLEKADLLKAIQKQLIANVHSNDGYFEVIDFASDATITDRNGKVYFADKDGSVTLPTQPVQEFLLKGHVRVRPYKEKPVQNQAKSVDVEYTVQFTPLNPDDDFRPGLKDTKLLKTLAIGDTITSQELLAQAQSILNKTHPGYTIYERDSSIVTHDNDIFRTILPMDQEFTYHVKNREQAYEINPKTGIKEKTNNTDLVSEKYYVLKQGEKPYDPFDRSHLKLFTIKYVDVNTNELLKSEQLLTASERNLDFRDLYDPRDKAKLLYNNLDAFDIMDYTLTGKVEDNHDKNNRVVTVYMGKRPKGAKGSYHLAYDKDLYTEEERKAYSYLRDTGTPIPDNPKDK

[3] = test system: Streptococcus sp. 'group A'; test: Streptococcus pyogenes SK(-)GAS viability under kanamycin – luminescence, BacTiterGlo, confirmation, counter-screen for streptokinase expression inhibitor project, dose response (AID 1900); type: functional, organism-based
[4] = Luminescence Cell-Based Dose Retest to Confirm Inhibitors of Cancer Stem Cells. [Related pubchem assays (depositor defined):AID2717, AID2721]; type: functional; conditions: Homo sapiens
Streptococcus = test: GAS UMAA2166 growth inhibition – luminescence, BacTiterGlo, counter-screen for streptokinase expression inhibitor project, dose response (AID 1915); type: functional, organism-based;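 also: potency for reduction of bacterial viability or growth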
Cytochrome P450 1A2 = target: T2, Cytochrome P450 1A2 (Homo sapiens, UniProt P05177);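 also: PubChem cytochrome P450 panel assay, CYP1A2 panel member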
T2 sequence (P05177 whole entry): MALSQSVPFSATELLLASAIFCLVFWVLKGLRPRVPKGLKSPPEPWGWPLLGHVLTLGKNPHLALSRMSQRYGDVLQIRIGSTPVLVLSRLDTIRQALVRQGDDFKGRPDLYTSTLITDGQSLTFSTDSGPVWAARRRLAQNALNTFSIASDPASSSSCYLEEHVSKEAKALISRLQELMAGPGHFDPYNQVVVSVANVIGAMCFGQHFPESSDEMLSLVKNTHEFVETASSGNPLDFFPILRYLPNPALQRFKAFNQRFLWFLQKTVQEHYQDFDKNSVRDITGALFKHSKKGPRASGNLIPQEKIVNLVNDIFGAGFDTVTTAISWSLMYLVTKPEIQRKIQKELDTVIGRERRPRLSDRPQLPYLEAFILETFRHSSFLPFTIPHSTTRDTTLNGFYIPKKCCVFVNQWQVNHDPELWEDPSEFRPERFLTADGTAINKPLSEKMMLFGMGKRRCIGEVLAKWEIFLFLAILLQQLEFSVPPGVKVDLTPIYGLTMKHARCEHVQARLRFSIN

[5] = Luminescence Cell-Based Dose Response HTS to Identify Activators of Luciferase Translation or Activity in H4 […] Cells. [Related pubchem assays: 1829 (Project Summary), 1814 (Primary HTS)]; type: functional
H4 = test: Luminescence Cell-Based Dose Response HTS to Identify Activators of 5'UTR Stem-Loop Driven Prion Protein mRNA Translation in H4 Neuroglioblastoma Cells. [Related pubchem assays: 1829 (Project Summary), 1814 (Primary HTS)]; type: functional; conditions: Homo sapiens

Cytochrome P450 2C9, sequence (P11712 whole entry): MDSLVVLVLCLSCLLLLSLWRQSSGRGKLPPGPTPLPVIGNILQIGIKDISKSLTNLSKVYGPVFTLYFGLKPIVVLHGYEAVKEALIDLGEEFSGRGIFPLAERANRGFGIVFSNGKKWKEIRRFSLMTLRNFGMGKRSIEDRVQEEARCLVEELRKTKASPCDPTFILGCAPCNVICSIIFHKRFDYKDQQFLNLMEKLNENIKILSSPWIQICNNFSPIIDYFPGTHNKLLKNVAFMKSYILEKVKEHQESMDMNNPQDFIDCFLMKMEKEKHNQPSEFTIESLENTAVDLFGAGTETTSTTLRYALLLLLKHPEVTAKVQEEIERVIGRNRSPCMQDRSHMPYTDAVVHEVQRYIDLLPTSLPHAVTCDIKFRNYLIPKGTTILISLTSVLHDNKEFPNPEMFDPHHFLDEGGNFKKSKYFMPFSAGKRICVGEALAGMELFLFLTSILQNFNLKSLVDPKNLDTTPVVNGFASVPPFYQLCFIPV

CCOC(=O)C1=C(O)C(Nc2nccs2)(C(F)(F)F)N=C1C (stereo not drawn)
AC50 (Cytochrome P450 2C9): 35.5 µM (inconclusive)

CCOc1ccccc1CN1CCN(Cc2[nH]c3ccccc3c2C)CC1CCO (stereo not drawn)
EC50 [1]: > 60 µM (not active) | EC50 [2]: 0.204 µM (active)

Cc1ccc(C)c(-c2csc(N)c2C(=O)OC(C)C)c1
EC50 (Streptokinase A): 17 µM (active) | EC50 [3]: 9.04 µM (active) | AC50 [4]: 6.66 µM (active) | EC50 (Streptococcus): > 150 µM (not active)

CCCOc1ccc(/C=N/Nc2cccc([N+](=O)[O-])c2)c(O)c1
AC50 [4]: 1.76 µM (active)

CC(C)(C)c1ccc(C(=O)NCc2nnc(SCC(=O)NC3CCCC3)o2)cc1
EC50 (Streptokinase A): > 150 µM (inconclusive) | EC50 [3]: > 150 µM (not active) | EC50 (Streptococcus): > 150 µM (not active)

Cc1c(Cl)cnn1CC(=O)NC1C(=O)N2C(C(=O)O)=C(CSc3nnnn3C)CSC12 (stereo not drawn)
EC50 [3]: 0.1 µM (active) | EC50 (Streptococcus): 0.283 µM (active)

Cc1ccc(-n2c(SCC(=O)c3c(N)n(C)c(=O)n(C)c3=O)nc3sc4c(c3c2=O)CCCC4)c(C)c1
EC50 [1]: 50.5 µM (active) | EC50 [2]: 2.1 µM (active)

CCn1c(SCC(=O)N/N=C/C=C\c2ccccc2[N+](=O)[O-])nnc1-c1ccccc1
AC50 (Cytochrome P450 1A2): 28.2 µM (inconclusive)

O=[N+]([O-])c1ccc(N2CCN(S(=O)(=O)c3ccc(Cl)cc3)CC2)cc1NCc1cccnc1
EC50 [1]: 15.4 µM (active) | EC50 [2]: 1.38 µM (active)

O=c1[nH]c2cc3c(cc2cc1CN(CCc1ccccc1)Cc1nnnn1CC1CCCO1)OCO3 (stereo not drawn)
EC50 (Streptokinase A): > 150 µM (not active)

COc1ccccc1NC(=O)NCCCCc1ccccc1
EC50 (Streptokinase A): > 150 µM (not active) | EC50 [3]: > 150 µM (not active) | EC50 (Streptococcus): > 150 µM (not active)

O=C(Nc1cccc(NC(=O)c2cccnc2)c1)c1ccccc1
EC50 (Streptokinase A): > 150 µM (not active) | EC50 [3]: > 150 µM (not active) | EC50 (Streptococcus): > 150 µM (not active)

COCCNC(=O)CN(C(=O)CCC(=O)Nc1ccccn1)c1ccc(C)cc1
AC50 [4]: > 195 µM (inactive)

Oc1nc2cc3c(cc2cc1CN(CCc1ccccc1)Cc1nnnn1CC1CCCO1)OCO3 (stereo not drawn)
EC50 [3]: > 150 µM (not active) | EC50 (Streptococcus): > 150 µM (not active)

CC(=O)c1c(C)[nH]c(C(=O)Nc2nccs2)c1C
EC50 [5]: > 120 µM (not active) | EC50 (H4): > 120 µM (not active)

CN(C)CCCN1c2ccccc2C(C)(C)c2ccccc21 [DIMETACRINE]
AC50 (Cytochrome P450 1A2): 5.01 µM (inconclusive)

CC1=C/C(=N\NC(=S)NCc2ccccc2)CC1
EC50 [1]: > 60 µM (not active) | EC50 [2]: 2.88 µM (active)

OCCCNc1[nH]cnc2nncc1-2
AC50 (Cytochrome P450 1A2): 6.31 µM (inconclusive)

CN(C)Cc1nc2ccccc2c(=O)n1Cc1nc(-c2cc3ccccc3o2)cs1
EC50 [1]: > 30 µM (not active) | EC50 (Streptokinase A): 104 µM (active) | EC50 [3]: 10.4 µM (active) | EC50 (Streptococcus): > 150 µM (not active) | EC50 [2]: 2.57 µM (active)

CN1CCc2c(sc(NC(=O)c3cc4cc([N+](=O)[O-])ccc4s3)c2C(N)=O)C1
EC50 [1]: 14.3 µM (active) | EC50 [2]: 1.73 µM (active)

O=C(c1cc(COc2cccc3cnccc23)on1)N1CCC(c2ccccc2Cl)C1 (stereo not drawn)
EC50 [1]: > 60 µM (not active) | EC50 [2]: 1.57 µM (active)

O=c1n(-c2ccc(Br)cc2)cnn1-c1ncccc1[N+](=O)[O-]
EC50 [5]: 2.9 µM (active) | EC50 (H4): 17.3 µM (active)

COC(=O)c1c(NC(=O)c2ccc(C)c(S(=O)(=O)Nc3ccccc3C)c2)sc2c1CCCC2
AC50 [4]: 0.875 µM (active)

Cc1ccc2nc(N(CCCN(C)C)C(=O)c3ccc(Br)s3)sc2c1
EC50 [1]: > 60 µM (not active) | EC50 [2]: 0.102 µM (active)

COc1cccc(-c2nnc(NC(=O)c3ccc(S(=O)(=O)N4CC(C)OC(C)C4)cc3)o2)c1 (stereo not drawn)
EC50 [3]: 1.3 µM (active) | EC50 (Streptococcus): 2.15 µM (active)

O=S(=O)(O)c1cc(/N=N\c2cccc3ccccc23)c(O)c2ncccc12
AC50 (Cytochrome P450 1A2): 0.631 µM (inconclusive)

O=C(c1ccncc1)N1CCC2(CCCN(c3cccc(-c4ccccc4)c3)C2)CC1
AC50 (Cytochrome P450 1A2): 12.6 µM (inconclusive)

CC(C)(C)c1ccc(Cn2nnc3c(O)nc(C4CCCN(C(=O)c5cccs5)C4)nc32)cc1 (stereo not drawn)
AC50 [4]: 10.6 µM (active)

COc1ccc(OCC(=O)Nc2ccc(Cl)cc2C(=O)c2ccccc2)cc1
AC50 (Cytochrome P450 1A2): 3.55 µM (inconclusive)

COc1cc(/C=C(/C#N)c2ccc(C)cc2)ccc1Oc1ccc([N+](=O)[O-])cn1
EC50 [1]: > 60 µM (not active) | EC50 [2]: 1.54 µM (active)

CCOC(=O)N1CCN(c2cc(N3CCN(CC)CC3)c(F)cc2[N+](=O)[O-])CC1C (stereo not drawn)
EC50 [1]: > 60 µM (inconclusive) | EC50 [2]: 0.184 µM (active)

OC(COCC(F)(F)C(F)(F)C(F)(F)C(F)F)Cn1c2ccc(Cl)cc2c2cc(Cl)ccc21 (stereo not drawn)
EC50 [3]: 2.2 µM (active) | EC50 (Streptococcus): 2.62 µM (active)

O=C(Nc1ccccc1)Nc1ccc(-n2ccc(C(F)(F)F)n2)cc1
EC50 [5]: 0.648 µM (active) | EC50 (H4): > 120 µM (not active)

Cc1cc(C)cc(NC(S)=NCCSc2ccc(Cl)cc2)c1
EC50 (Streptokinase A): 15.9 µM (active) | EC50 [3]: 11.8 µM (active) | EC50 (Streptococcus): > 150 µM (not active)

FC(F)(F)c1cc(-c2ccc(Cl)cc2)nc(NCc2cccnc2)n1
EC50 [1]: > 60 µM (not active) | AC50 [4]: 7.33 µM (active) | EC50 [2]: 1.01 µM (active)

COc1ccc(C2c3ccsc3CCN2C(=O)C(C)(C)C)cc1 (stereo not drawn)
EC50 (Streptokinase A): > 150 µM (not active) | EC50 [3]: > 150 µM (not active) | EC50 (Streptococcus): > 150 µM (not active)

CCC[C@]12CN3C[C@](CCC)(CN(C1)C3c1ccccn1)C2=O (stereo partly drawn)
EC50 [3]: 43.8 µM (active) | EC50 (Streptococcus): > 150 µM (not active)

Cc1c([N+](=O)[O-])nnn1-c1cc(Cl)cc(Cl)c1
EC50 [1]: > 30 µM (not active) | EC50 [2]: 1.86 µM (active)

Nc1ccc(-c2ccc(N)cc2C(F)(F)F)c(C(F)(F)F)c1
EC50 (Streptokinase A): 76.8 µM (active) | EC50 [3]: 31 µM (active) | EC50 (Streptococcus): > 150 µM (not active)

Cc1cc2occ(CC(=O)NC3=NCCS3)c2cc1C(C)C
EC50 (Streptokinase A): > 150 µM (not active) | EC50 [3]: 71.7 µM (active) | EC50 (Streptococcus): > 150 µM (not active)

O=C(CC(NS(=O)(=O)c1ccc(Cl)cc1)c1ccco1)NCc1ccco1 (stereo not drawn)
AC50 (Cytochrome P450 1A2): 25.1 µM (inconclusive)

Cc1ccc(C(=O)N2CCCC(CCC(=O)NCc3ccccc3F)C2)cn1 (stereo not drawn)
EC50 (Streptokinase A): > 150 µM (not active) | EC50 [3]: > 150 µM (not active) | EC50 (Streptococcus): > 150 µM (not active)

CCSc1nc2nc(C)cc(C)n2n1
AC50 (Cytochrome P450 1A2): 12.6 µM (inconclusive)

O=C(COc1ccccc1)Nc1cccc(-c2nc3ccccc3[nH]2)c1
EC50 (Streptokinase A): > 150 µM (not active) | EC50 [3]: 22.7 µM (active) | EC50 (Streptococcus): > 150 µM (not active)

CCCCC(C=O)NC(=O)C(CC(C)C)NC(=O)OCc1ccccc1 (stereo not drawn)
AC50 (Cytochrome P450 1A2): 31.6 µM (inconclusive)

COc1ccccc1CN1CC[C@@]2(CCCN(C(=O)c3cc(C(F)(F)F)cc(C(F)(F)F)c3)C2)C1
AC50 (Cytochrome P450 1A2): 15.8 µM (inconclusive)

CCOC(=O)c1ccc(NC(=S)N(Cc2cccnc2)Cc2ccco2)cc1
EC50 [1]: > 60 µM (not active) | EC50 [2]: 0.631 µM (active)

N#CC1=C(N)OC2=C(C(=O)CC(c3ccccc3)C2)C1c1cccnc1 (stereo not drawn)
EC50 [1]: > 30 µM (not active) | EC50 [2]: 0.111 µM (active)

COc1ccc(Nc2nc(NC(C)(C)C)nc(N3CCOCC3)n2)c(OC)c1
EC50 [1]: > 60 µM (not active) | EC50 [2]: 1.59 µM (active)

O=c1c(Cl)c(NCc2ccccc2)cnn1C12CC3CC(CC(C3)C1)C2
AC50 [4]: 1.16 µM (active)

Cc1cc(C)c(-c2csc(NC(=O)COC(=O)c3ccc4c(c3)OCO4)n2)c(C)c1
EC50 [1]: > 60 µM (not active) | EC50 [2]: 4.69 µM (active)

O=S(=O)(Nc1ccc(-c2nnc(SCc3ccc(Cl)cc3)o2)cc1)c1ccccc1
AC50 [4]: 3.31 µM (active)

CCSc1nnc(NC(=O)COc2ccc3ccccc3c2)s1
AC50 (Cytochrome P450 1A2): 10 µM (inconclusive)

c1ccc(N2CCN(c3nc4cc5c(cc4s3)OCCO5)CC2)cc1
EC50 (H4): 46 µM (inconclusive)
